Laboratory results published in the supplement of paper PMC10307832.

Compound: C1COCCN1CC2=CC(=O)C(=CO2)OCCCCCSC3=C4C=CC(=CC4=NC=C3)C(F)(F)F [EHT 1864] + CC(=O)Nc1cccc(-n2c(=O)n(C3CC3)c(=O)c3c(Nc4ccc(I)cc4F)n(C)c(=O)c(C)c32)c1 [Trametinib] (partner 0.02 µM)
Assay: relative viability (nuclei count vs DMSO), 5 days (fraction); higher = more cells survive
Outline: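 Relative viability was taken as the ratio of nuclei in treated wells to nuclei in vehicle wells. Lung cancer cell lines in 1536-well plates received compounds by pin tool one day after seeding, either one drug alone or a fixed anchor-drug dose plus five library-drug doses (not always all listed) in √10 steps. Nuclei were counted on 4× images after 5 days of treatment, and values are medians of duplicate plates.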

| Cell Line | relative viability (first compound 0.04 µM) | relative viability (first compound 0.1265 µM) | relative viability (first compound 0.4 µM) | relative viability (first compound 1.265 µM) | relative viability (first compound 4 µM) |
| --- | --- | --- | --- | --- | --- |
| 201T | 0.702 | 0.707 | 0.681 | 0.693 | 0.605 |
| A-427 | 0.698 | 0.837 | 0.758 | 0.812 | 0.736 |
| BEN | 0.819 | 0.949 | 1.09 | 0.928 | 1.1 |
| CAL-12T | 0.35 | 0.287 | 0.333 | 0.399 | 0.39 |
| COR-L23 | 0.524 | 0.453 | 0.598 | 0.631 | 0.553 |
| COR-L 105 | 0.443 | 0.395 | 0.513 | 0.462 | 0.508 |
| ChaGo-K-1 | 0.839 | 0.85 | 0.89 | 0.911 | 0.871 |
| EKVX | 0.412 | 0.35 | 0.35 | 0.367 | 0.28 |
| EMC-BAC-2 | 0.759 | 0.721 | 0.889 | 0.924 | 0.99 |
| EPLC-272H | 0.283 | 0.288 | 0.29 | 0.267 | 0.289 |
| H3255 | 0.561 | 0.527 | – | 0.65 | 0.67 |
| HARA | 0.729 | – | 0.908 | 0.782 | 1.14 |
| HCC-15 | 0.404 | – | 0.362 | 0.362 | 0.41 |
| HCC-44 | 1.08 | 0.977 | 0.961 | 0.967 | 1.11 |
| HCC-78 | 0.633 | 0.66 | 0.842 | 0.645 | 0.777 |
| HCC-366 | 0.38 | 0.3 | 0.318 | 0.413 | 0.285 |
| HCC-827 | 0.618 | 0.611 | 0.597 | 0.555 | 0.548 |
| HOP-62 | 0.4 | – | 0.362 | 0.38 | 0.415 |
| LC-2-ad | 0.91 | 0.816 | 0.895 | 0.868 | 0.79 |
| LCLC-97TM1 | 0.2 | 0.178 | 0.193 | 0.183 | 0.236 |
| LCLC-103H | 0.701 | 0.612 | 0.655 | 0.588 | 0.55 |
| LK-2 | 0.673 | 0.48 | 0.719 | 0.596 | 1.02 |
| LOU-NH91 | 0.757 | 0.747 | 0.802 | 0.761 | 0.74 |
| LU99A | 0.531 | 0.428 | 0.487 | 0.452 | 0.565 |

| Cell Line | relative viability (first compound 0.04 µM) | relative viability (first compound 0.1265 µM) | relative viability (first compound 0.4 µM) | relative viability (first compound 1.265 µM) | relative viability (first compound 4 µM) |
| --- | --- | --- | --- | --- | --- |
| LXF-289 | 0.676 | 0.609 | 0.615 | 0.616 | 0.657 |
| NCI-H23 | 0.347 | 0.413 | 0.31 | 0.396 | 0.419 |
| NCI-H322M | 0.525 | 0.525 | 0.544 | 0.595 | 0.595 |
| NCI-H358 | 0.138 | 0.126 | 0.153 | 0.14 | 0.124 |
| NCI-H441 | 0.365 | – | 0.544 | 0.573 | 0.51 |
| NCI-H460 | – | 0.108 | 0.222 | 0.133 | 0.134 |
| NCI-H520 | 0.692 | 0.628 | 0.732 | 0.659 | 0.67 |
| NCI-H596 | 0.796 | 0.658 | 0.812 | 0.738 | 0.857 |
| NCI-H647 | 0.437 | 0.353 | 0.604 | 0.429 | 0.464 |
| NCI-H650 | 0.995 | 0.92 | 0.898 | 1.23 | 1.11 |
| NCI-H661 | 0.527 | 0.53 | 0.616 | 0.565 | 0.498 |
| NCI-H727 | 0.389 | 0.386 | 0.382 | 0.374 | 0.421 |
| NCI-H838 | 0.5 | 0.466 | 0.553 | 0.514 | 0.536 |
| NCI-H1355 | 0.461 | 0.39 | 0.393 | 0.452 | 0.412 |
| NCI-H1395 | 1.07 | 0.908 | 0.977 | 0.978 | 1.08 |
| NCI-H1437 | 0.531 | 0.411 | 0.56 | 0.485 | 0.45 |
| NCI-H1648 | 0.545 | – | 0.44 | 0.4 | 0.607 |
| NCI-H1650 | 0.521 | 0.568 | 0.515 | 0.515 | 0.568 |
| NCI-H1651 | 0.832 | 0.827 | 0.822 | 0.817 | 0.808 |
| NCI-H1666 | 0.961 | 0.886 | 0.8 | 0.884 | 0.862 |
| NCI-H1734 | 0.781 | 0.709 | 0.643 | 0.592 | 0.61 |
| NCI-H1755 | 0.732 | 0.782 | 0.768 | 0.701 | 0.726 |
| NCI-H1792 | 0.432 | – | 0.438 | 0.345 | 0.456 |
| NCI-H1793 | 0.37 | 0.356 | 0.465 | 0.428 | 0.434 |

| Cell Line | relative viability (first compound 0.04 µM) | relative viability (first compound 0.1265 µM) | relative viability (first compound 0.4 µM) | relative viability (first compound 1.265 µM) | relative viability (first compound 4 µM) |
| --- | --- | --- | --- | --- | --- |
| NCI-H1915 | 0.295 | – | 0.283 | 0.28 | 0.286 |
| NCI-H1944 | 0.426 | – | 0.42 | 0.39 | 0.387 |
| NCI-H1975 | 0.375 | 0.329 | 0.296 | 0.225 | 0.327 |
| NCI-H1993 | 0.579 | – | 0.5 | 0.485 | 0.543 |
| NCI-H2009 | 0.252 | 0.267 | 0.301 | 0.336 | 0.277 |
| NCI-H2023 | 0.514 | 0.459 | 0.492 | 0.569 | 0.573 |
| NCI-H2085 | 0.417 | 0.533 | 0.514 | 0.604 | 0.543 |
| NCI-H2087 | 0.188 | – | 0.211 | 0.167 | 0.215 |
| NCI-H2126 | 0.614 | 0.568 | 0.545 | 0.503 | 0.548 |
| NCI-H2170 | 0.893 | 0.779 | 0.911 | 0.886 | 0.911 |
| NCI-H2228 | 0.553 | 0.566 | 0.389 | – | 0.533 |
| NCI-H2342 | 0.71 | 0.681 | 0.759 | 0.874 | 0.935 |
| NCI-H2347 | 0.222 | 0.281 | 0.251 | 0.276 | 0.463 |
| NCI-H2405 | 0.688 | 0.587 | 0.744 | 0.644 | 0.612 |
| NCI-H3122 | 0.219 | 0.288 | 0.248 | 0.202 | 0.219 |
| PC-3 [JPC-3] | 0.641 | 0.649 | 0.763 | 0.727 | 0.695 |
| PC-14 | 0.741 | 0.672 | 0.796 | 0.68 | 0.88 |
| RERF-LC-KJ | 0.896 | 0.868 | 0.866 | 0.826 | 0.832 |
| SK-LU-1 | 0.594 | 0.516 | 0.477 | 0.378 | 0.464 |
| SK-MES-1 | 0.539 | 0.498 | 0.518 | 0.537 | 0.518 |
| SW 1573 | 0.622 | – | 0.437 | 0.398 | 0.444 |
| UMC-11 | 0.727 | 0.496 | 0.692 | 0.74 | 0.967 |
